Source: PubChem BioAssay (NCI)
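Cultured in 96-well plates, cells were exposed to test compound for 48 hours across five concentrations. Abbreviation: GI50, concentration required for 50% inhibition of growth. TGI: total growth inhibition.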

tested on: DLD-1 colon; assay: NCI tumour cell line growth inhibition, 48 h

SMILES | TGI [µM] | GI50 [µM]
CN1CCN(C)C1c1cccc(C2N(C)CCN2C)c1 | > 100 | 
CC(=O)OCCOCBr | > 100 | 
CC(O)CN1C(=O)NC(Cc2ccccc2)C1=O (centres undefined) | > 100 | 
O=C(c1ccccc1)[C@H]1Nc2cnccc2C2c3ccccc3CC21 (some centres undefined) | > 80.7 | 
COc1ccc(C(=O)C(C(=O)CCC(=O)Nc2cccc(C(F)(F)F)c2)c2ccccc2)cc1 (centres undefined) | > 100 | 
NC1=NC(=O)C(CC(=O)Nc2ccc([N+](=O)[O-])cc2[N+](=O)[O-])S1 (centres undefined) | > 100 | 
O=C1c2ccccc2-c2cccc3ccc(Cc4ccccc4)c1c23 | > 100 | 
CC/C=C\C/C=C\C1CC(=O)NCCCNCCCCN1 (centres undefined) | > 100 | 
CC1CCCC(C(=O)/C(=C/c2cccc(Cl)c2)C(=O)C(=O)O)C1 (centres undefined) | 40.3 | 
CC(=O)c1c(C)n([O-])c2cc(C)c(C)cc2[n+]1=O | > 100 | 
COCC(=O)OC1CCn2c1nc1c2C(=O)C(C)=C(NC(C)=O)C1=O (centres undefined) | 28.8 | 
N#CC(C#N)=Cc1cccc(Oc2ccccc2)c1 | 51.9 | 
COc1ccc(/C=C/C(=O)c2sc(-n3nc(-c4ccccc4)cc3-c3ccccc3)nc2C)cc1OC | > 100 | 
NC(CCSCC(F)F)C(=O)O (centres undefined) | > 100 | 
CC1(C)OC(=O)C=C([O-])O1.CC1(C)OC(=O)C=C([O-])O1.O=c1c(O)c(-c2ccc([O-])cc2[O-])oc2cc(O)cc(O)c12.[Ti+4] | > 100 | > 100

tested on: A549 NSCLC; assay: NCI tumour cell line growth inhibition, 48 h

SMILES | TGI [µM] | GI50 [µM]
CN(C)C(=S)/N=c1\ss/c(=N\S(=O)(=O)c2ccccc2)n1-c1ccccc1 | > 100 | 
Cc1ccc([N+](=O)[O-])c2c(NCCCN(C)C)ccnc12 | > 100 | 
N#Cc1c(N)c(C(=O)O)nn(-c2cccc(C(F)(F)F)c2)c1=O | > 100 | 
CCOC(=O)Cc1nc(/C(C#N)=C/c2ccco2)[nH]c(=O)c1C#N | > 100 | 
CC1=Nc2c(ccc3c2C(=O)c2ccccc2C3=O)NC(c2ccncc2)C1 (centres undefined) | > 100 | 
CC(=O)[CH-]C(C)=O.CC(=O)[CH-]C(C)=O.N=CC=N.[Sn+2] | 22.4 | 9.6
COc1cc(/C=C\c2ccc(O)cc2)cc(OC)c1OC | > 100 | 
C=C(COC(C)=O)CC(/C=C(\C)CCC=C(C)C)OC(C)=O (centres undefined) | > 100 | 
CC1(C)CCc2cc3c(cc2O1)OCCC3=O | > 100 | 
Oc1c2c(c(O)c3ccccc13)=N[C@@H](c1ccccc1)[C@H](c1ccccc1)N=2 | > 100 | 
c1cc[c]([Sn]([S]c2cccc3cccnc23)([c]2ccccc2)[c]2ccccc2)cc1 | 0.224 | 0.0331
COc1ccc2c(-c3cc4ccccc4o3)cc(=O)oc2c1 | > 100 | 
O=C1CCn2c([nH]c3cccc4cccc2c43)=N1 | > 100 | 
CCOc1cccc2nc3cccc(C(=O)NCCN(C)C)c3nc12 | > 100 | 
Cc1cc(C)nc(NS(=O)(=O)c2ccc(Nc3c4ccccc4nc4c(C(=O)N5CCN(CCOS(C)(=O)=O)CC5)ccc(Cl)c34)cc2)n1 | > 100 | 
Clc1cc(Cl)c2c(Cl)cc(Cl)c3c2c1N=S=N3 | > 100 | 
CC(=O)OCCOCBr | > 100 | 
CC(O)CN1C(=O)NC(Cc2ccccc2)C1=O (centres undefined) | > 100 | 
O=C(c1ccccc1)[C@H]1Nc2cnccc2C2c3ccccc3CC21 (some centres undefined) | 74.5 | 

SMILES | TGI [µM] | GI50 [µM]
COc1ccc(C(=O)C(C(=O)CCC(=O)Nc2cccc(C(F)(F)F)c2)c2ccccc2)cc1 (centres undefined) | > 100 | 
NC1=NC(=O)C(CC(=O)Nc2ccc([N+](=O)[O-])cc2[N+](=O)[O-])S1 (centres undefined) | > 100 | 
O=C1c2ccccc2-c2cccc3ccc(Cc4ccccc4)c1c23 | > 100 | 
COC(=O)/C(=N\NC(=S)NN)C(C(=O)C(=O)Nc1ccccc1C(N)=O)c1nc2ccccc2[nH]c1=O (centres undefined) | > 100 | 
CC/C=C\C/C=C\C1CC(=O)NCCCNCCCCN1 (centres undefined) | > 100 | 
CS(=O)(=O)Nc1ccc(-c2ccc3c(NC(=O)C4CC4)n[nH]c3c2)cc1 | > 25 | > 25
CC1CCCC(C(=O)/C(=C/c2cccc(Cl)c2)C(=O)C(=O)O)C1 (centres undefined) | > 100 | 
CC(=O)c1c(C)n([O-])c2cc(C)c(C)cc2[n+]1=O | > 100 | 
C=C1C(=O)O[C@H]2[C@H]1CC/C(COC(=O)c1cc3cc(OC)ccc3[nH]1)=C\CC[C@@]1(C)O[C@@H]21 | 3.38 | 1.66
COCC(=O)OC1CCn2c1nc1c2C(=O)C(C)=C(NC(C)=O)C1=O (centres undefined) | 47.8 | 
N#CC(C#N)=Cc1cccc(Oc2ccccc2)c1 | > 100 | 
COc1ccc(C2C(C#N)=C(N)OC3=C2CCCc2ccc(F)cc23)cc1OC (centres undefined) | > 69.6 | 25.8
Cc1ncc([N+](=O)[O-])n1CCNC(=O)CCCCn1ccnc1[N+](=O)[O-] | > 100 | 
COc1ccc(/C=C/C(=O)c2sc(-n3nc(-c4ccccc4)cc3-c3ccccc3)nc2C)cc1OC | > 100 | 
COC(=O)c1c(O)ccc2[nH]c(C)c(C#N)c12 | > 100 | 41.1
NC(CCSCC(F)F)C(=O)O (centres undefined) | > 100 | 
CC1(C)OC(=O)C=C([O-])O1.CC1(C)OC(=O)C=C([O-])O1.O=c1c(O)c(-c2ccc([O-])cc2[O-])oc2cc(O)cc(O)c12.[Ti+4] | > 100 | 
Nc1ccc(SC23CC4CC(CC(C4)C2)C3)cc1 | > 100 | 
CCOC(=O)[C@@H](C)C[C@H](Cc1ccccc1)NC(=O)c1csc([C@@H](C[C@H](C(C)C)N(C)C(=O)[C@@H](NC(=O)[C@H]2CCCCN2C)C(C)(C)C)OC(C)=O)n1 | > 16.7 | < 0.00167

tested on: BT-549 breast; assay: NCI tumour cell line growth inhibition, 48 h

SMILES | TGI [µM] | GI50 [µM]
Cc1ccc([N+](=O)[O-])c2c(NCCCN(C)C)ccnc12 | > 100 | 
CC(=O)[CH-]C(C)=O.CC(=O)[CH-]C(C)=O.N=CC=N.[Sn+2] | 8.25 | 2.76
COc1ccc2c(-c3cc4ccccc4o3)cc(=O)oc2c1 | > 100 | 
CS(=O)(=O)Nc1ccc(-c2ccc3c(NC(=O)C4CC4)n[nH]c3c2)cc1 | > 25 | > 19.2
C=C1C(=O)O[C@H]2[C@H]1CC/C(COC(=O)c1cc3cc(OC)ccc3[nH]1)=C\CC[C@@]1(C)O[C@@H]21 | 2.86 | 1.06
COCC(=O)OC1CCn2c1nc1c2C(=O)C(C)=C(NC(C)=O)C1=O (centres undefined) | 24.4 | 
COc1ccc(C2C(C#N)=C(N)OC3=C2CCCc2ccc(F)cc23)cc1OC (centres undefined) | 42.5 | 19.4
Cc1ncc([N+](=O)[O-])n1CCNC(=O)CCCCn1ccnc1[N+](=O)[O-] | > 100 | 
COC(=O)c1c(O)ccc2[nH]c(C)c(C#N)c12 | > 100 | 64
Nc1ccc(SC23CC4CC(CC(C4)C2)C3)cc1 | > 100 | 
CCOC(=O)[C@@H](C)C[C@H](Cc1ccccc1)NC(=O)c1csc([C@@H](C[C@H](C(C)C)N(C)C(=O)[C@@H](NC(=O)[C@H]2CCCCN2C)C(C)(C)C)OC(C)=O)n1 | 0.00961 | < 0.00167

tested on: SF-295 CNS; assay: NCI tumour cell line growth inhibition, 48 h

SMILES | TGI [µM]
CN(C)C(=S)/N=c1\ss/c(=N\S(=O)(=O)c2ccccc2)n1-c1ccccc1 | > 100
